Data from article doi:10.1101/2021.05.05.442810v1 (biorxiv, 2021).

Molecular target: truncated variant of M. xanthus ParB (NB and DNA-binding domains) (Myxococcus xanthus, UniProt Q1CVJ4)
Conditions: formed from CTPγS in crystallization; Mg2+; with thiophosphate; pH 8.5

In the case of `Nc1ccn([C@@H]2O[C@H](COP(=O)(O)OP(=O)(O)O)[C@@H](O)[C@H]2O)c(=O)n1` [CDP], the “X-ray crystal structure (1.9 Å)” value is reported as “we did not detect CTPγS but CDP”.
